Experimental data from patent US10174036B2, “Substituted pyrazoles as JAK inhibitors” (WUXI FORTUNE PHARMACEUTICAL CO., LTD, priority 2015, dated 2019).
Read-outs that look alike come from different tables or passages of the source.

What was measured:
Type in all cases: biochemical
JAK3 = target: T1, JAK3 (Homo sapiens, UniProt P52333); test: Test for in vitro activity of JAK3 kinase (LANCE Ultra ULight-JAK-1 peptide)
T1 construct: purchased Life technology
T1 sequence (P52333 1-1124): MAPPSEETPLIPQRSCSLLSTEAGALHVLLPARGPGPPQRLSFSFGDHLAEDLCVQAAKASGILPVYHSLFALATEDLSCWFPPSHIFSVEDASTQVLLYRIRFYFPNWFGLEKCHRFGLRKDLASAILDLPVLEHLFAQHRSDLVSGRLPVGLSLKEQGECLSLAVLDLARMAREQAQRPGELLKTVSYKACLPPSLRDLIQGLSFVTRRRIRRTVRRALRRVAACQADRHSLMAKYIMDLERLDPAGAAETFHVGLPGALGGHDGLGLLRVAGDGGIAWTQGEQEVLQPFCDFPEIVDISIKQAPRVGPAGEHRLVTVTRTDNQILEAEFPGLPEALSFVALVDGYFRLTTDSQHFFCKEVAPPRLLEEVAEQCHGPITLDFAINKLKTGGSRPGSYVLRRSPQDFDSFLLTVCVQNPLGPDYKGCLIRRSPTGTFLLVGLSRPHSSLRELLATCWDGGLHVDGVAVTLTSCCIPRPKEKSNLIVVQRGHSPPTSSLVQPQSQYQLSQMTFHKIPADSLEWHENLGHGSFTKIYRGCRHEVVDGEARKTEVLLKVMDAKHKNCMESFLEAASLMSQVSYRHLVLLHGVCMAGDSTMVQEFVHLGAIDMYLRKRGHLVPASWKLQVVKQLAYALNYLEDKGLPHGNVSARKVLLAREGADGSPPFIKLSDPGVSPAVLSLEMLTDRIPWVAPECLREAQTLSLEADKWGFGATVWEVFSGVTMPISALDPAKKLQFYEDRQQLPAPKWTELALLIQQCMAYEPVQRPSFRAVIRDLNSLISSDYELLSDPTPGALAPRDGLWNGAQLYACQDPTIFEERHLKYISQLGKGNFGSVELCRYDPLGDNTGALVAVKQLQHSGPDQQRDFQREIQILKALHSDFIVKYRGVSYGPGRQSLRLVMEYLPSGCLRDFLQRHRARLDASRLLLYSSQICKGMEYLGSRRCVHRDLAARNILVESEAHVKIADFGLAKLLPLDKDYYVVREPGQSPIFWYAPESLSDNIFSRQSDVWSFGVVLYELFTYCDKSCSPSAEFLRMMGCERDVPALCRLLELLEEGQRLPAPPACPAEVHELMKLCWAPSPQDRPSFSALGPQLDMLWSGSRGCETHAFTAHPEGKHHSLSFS
Method: (§1) Test for In Vitro Activity of Jak1, Jak2, and Jak3 Kinase
(§2) Recombinant human […] of JAK1, JAK2 and JAK3 were purchased from Life technology. LANCE Ultra ULight™-JAK-1 (Tyr1023) peptide and LANCE Eu-W1024 Anti-phosphotyrosine (PT66) were purchased from PerkinElmer. Multimode ELISA, Envison(PerkinElmer) reader was used.
0.05 nM of JAK3 Protein kinase, 50 nM of LANCE Ultra ULight™-JAK-1(Tyr1023) peptide, 4 uM of ATP, 50 mM of HEPES (pH 7.5), 10 mM of MgCl2, 1 mM of EGTA, 2 mM of DTT, 0.01% BRIJ-35. […] The reaction was carried out at room temperature for 90 min and the reaction system was 10 ul.
(§3) Determination for Reaction
(§4) 10 ul detection reagent was added to reaction plate, wherein the final concentration of LANCE Eu-W1024 Anti-phosphotyrosine (PT66) was 2 nM, the final concentration of EDTA was […], incubated at room temperature for 60 min, with Envison reader.
(§5) The reading was converted to inhibition ratio (%) by the following formula: the inhibition ratio (%)=([…])/(Max−Min)×100%.

JAK2 = target: T2, JAK2 (Homo sapiens, UniProt O60674); test: Test for in vitro activity of JAK2 kinase (LANCE Ultra ULight-JAK-1 peptide)
T2 construct: purchased Life technology
Method: as §1, §2
The reaction was carried out at room temperature for 60 min and the reaction system was 10 ul.
as §3, §4, §5

JAK1 = target: T3, JAK1 (Homo sapiens, UniProt P23458); test: Test for in vitro activity of JAK1 kinase (LANCE Ultra ULight-JAK-1 peptide); conditions: selectivity ratio JAK1 versus JAK2; class symbol
T3 construct: purchased Life technology
Method: as §1, §2
The reaction was carried out at room temperature for 90 min and the reaction system was 10 ul.
as §3, §4, §5

[1] = selectivity ratio JAK3 versus JAK2, class symbol
[2] = recombinant human JAK2, 12 uM ATP, 60 min, class symbol

T2 sequence (O60674 whole entry): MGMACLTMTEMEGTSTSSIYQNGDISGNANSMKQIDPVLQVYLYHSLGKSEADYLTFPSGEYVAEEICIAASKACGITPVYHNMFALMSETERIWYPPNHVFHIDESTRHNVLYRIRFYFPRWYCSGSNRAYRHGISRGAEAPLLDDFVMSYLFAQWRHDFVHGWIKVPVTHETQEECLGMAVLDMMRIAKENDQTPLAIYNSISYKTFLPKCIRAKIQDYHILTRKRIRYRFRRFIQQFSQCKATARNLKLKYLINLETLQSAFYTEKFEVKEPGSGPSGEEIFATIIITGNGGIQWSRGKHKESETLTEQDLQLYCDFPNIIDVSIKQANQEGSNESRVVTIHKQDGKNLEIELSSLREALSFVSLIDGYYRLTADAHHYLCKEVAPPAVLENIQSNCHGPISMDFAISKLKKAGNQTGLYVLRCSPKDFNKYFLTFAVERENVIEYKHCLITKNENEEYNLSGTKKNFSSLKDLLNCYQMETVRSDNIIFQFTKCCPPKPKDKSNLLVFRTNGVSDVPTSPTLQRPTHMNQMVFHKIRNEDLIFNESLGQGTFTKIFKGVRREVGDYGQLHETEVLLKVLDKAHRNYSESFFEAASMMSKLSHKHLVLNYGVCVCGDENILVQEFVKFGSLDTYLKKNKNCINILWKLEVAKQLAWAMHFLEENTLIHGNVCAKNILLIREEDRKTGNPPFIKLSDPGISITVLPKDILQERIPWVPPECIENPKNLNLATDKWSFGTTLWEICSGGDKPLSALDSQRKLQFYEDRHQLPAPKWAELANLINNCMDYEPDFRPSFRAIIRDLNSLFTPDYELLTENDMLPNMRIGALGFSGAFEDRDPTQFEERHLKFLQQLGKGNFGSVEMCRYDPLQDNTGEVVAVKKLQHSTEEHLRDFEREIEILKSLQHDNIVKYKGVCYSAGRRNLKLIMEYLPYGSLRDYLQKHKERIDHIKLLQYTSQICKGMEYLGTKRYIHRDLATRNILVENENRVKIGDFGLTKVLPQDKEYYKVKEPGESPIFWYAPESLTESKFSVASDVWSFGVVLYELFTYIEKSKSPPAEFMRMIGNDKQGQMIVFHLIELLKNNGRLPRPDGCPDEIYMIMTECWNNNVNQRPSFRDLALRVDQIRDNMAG
T3 sequence (P23458 whole entry): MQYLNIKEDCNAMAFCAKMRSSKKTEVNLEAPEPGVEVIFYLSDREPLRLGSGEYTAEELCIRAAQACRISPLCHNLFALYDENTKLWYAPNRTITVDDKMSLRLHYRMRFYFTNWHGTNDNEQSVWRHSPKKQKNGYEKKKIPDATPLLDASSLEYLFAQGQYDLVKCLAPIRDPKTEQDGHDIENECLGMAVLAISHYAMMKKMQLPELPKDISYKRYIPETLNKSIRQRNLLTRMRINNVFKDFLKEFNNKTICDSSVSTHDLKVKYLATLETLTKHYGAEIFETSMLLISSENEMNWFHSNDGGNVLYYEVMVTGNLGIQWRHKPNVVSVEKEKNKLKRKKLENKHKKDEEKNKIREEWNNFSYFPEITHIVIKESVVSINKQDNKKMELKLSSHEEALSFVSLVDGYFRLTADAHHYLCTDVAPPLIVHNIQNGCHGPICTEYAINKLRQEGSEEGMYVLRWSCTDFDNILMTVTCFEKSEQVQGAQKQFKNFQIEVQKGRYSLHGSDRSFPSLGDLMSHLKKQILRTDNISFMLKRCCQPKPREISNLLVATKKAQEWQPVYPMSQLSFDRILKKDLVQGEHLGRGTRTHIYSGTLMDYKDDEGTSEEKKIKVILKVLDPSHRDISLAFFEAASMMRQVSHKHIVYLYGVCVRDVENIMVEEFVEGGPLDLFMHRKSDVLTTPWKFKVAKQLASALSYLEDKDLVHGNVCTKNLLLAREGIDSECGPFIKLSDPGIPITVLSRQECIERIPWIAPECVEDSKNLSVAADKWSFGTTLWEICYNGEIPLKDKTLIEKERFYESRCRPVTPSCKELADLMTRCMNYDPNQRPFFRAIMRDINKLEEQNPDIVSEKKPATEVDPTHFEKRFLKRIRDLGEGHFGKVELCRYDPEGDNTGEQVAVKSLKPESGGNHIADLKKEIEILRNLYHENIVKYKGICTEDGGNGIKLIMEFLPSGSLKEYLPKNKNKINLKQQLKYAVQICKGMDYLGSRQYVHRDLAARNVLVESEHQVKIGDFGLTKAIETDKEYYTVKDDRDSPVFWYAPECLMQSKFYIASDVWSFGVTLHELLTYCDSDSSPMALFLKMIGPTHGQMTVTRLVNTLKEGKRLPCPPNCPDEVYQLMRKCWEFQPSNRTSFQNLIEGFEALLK

Row | Compound | JAK3/JAK2 (times) (JAK3; [1]) | IC50 (JAK2; [2]) [µM] | JAK1/JAK2 (times) (JAK1) | JAK3/JAK2 (times) (JAK3) | IC50 (JAK2) [µM]
1 | CS(=O)(=O)N1CC(CC#N)(n2cc(-c3nccc4nc(N)nn34)cn2)C1 [WX04, 2-[3-[4-(2-amino-[1,2,4]triazolo[1,5-c]pyrimidin-5-yl)pyrazole-1-yl]-1-methylsulfonyl-cyclobutylamine-3-yl] acetonitrile] | F3 (10 < F3 ≤ 25) | 0.01 to 0.1 | F1 (1 ≤ F1 ≤ 5) | – | –
2 | N#CCC1(n2cc(-c3cccc4nc(NC(=O)C5CC5)nn34)cn2)CN(S(=O)(=O)C(F)(F)F)C1 [WX09, N-(5-(1-(3-(cyanomethyl)-1-(trifluoromethylsulfonyl)azetidine-3-yl)-1H-pyrazole-4-yl)-[1,2,4]triazolo[1,5-a]pyridin-2-yl)cyclopropane formamide] | F4 (25 < F4 ≤ 100) | < 0.01 | F1 (1 ≤ F1 ≤ 5) | – | –
3 | N#CCC1(n2cc(-c3nccc4nc(NC(=O)C5CNC5)nn34)cn2)CN(S(=O)(=O)C(F)(F)F)C1 [WX06, N-[5-[1-[3-(cyanomethyl)-1-(trifluoromethylsulfonyl)cyclobutylamine-3-yl]pyrazole-4-yl]-[1,2,4]triazolo[1,5-c]pyrimidin-2-yl]cyclobutylamine-3-formamide] | F3 (10 < F3 ≤ 25) | 0.01 to 0.1 | F1 (1 ≤ F1 ≤ 5) | – | –
4 | N#CCC1(n2cc(-c3cccc4nc(NC(=O)C5CC5)nn34)cn2)CNC1 [WX00, N-[5-[1-[3-(cyanomethyl)azetidine-3-yl]pyrazole-4-yl]-[1,2,4]triazolo[1,5-a]pyridin-2-yl] cyclopropane carboxamide] | F4 (25 < F4 ≤ 100) | 0.01 to 0.1 | F1 (1 ≤ F1 ≤ 5) | – | –
5 | N#CCC1(n2cc(-c3cccc4ncnn34)cn2)CN(S(=O)(=O)C(F)(F)F)C1 [WX17, 2-[3-[4-([1,2,4]triazolo[1,5-a]pyridin-5-)pyrazole-1-]-1-(trifluoromethylsulfonyl)azetidine-3-]acetonitrile] | F3 (10 < F3 ≤ 25) | 0.01 to 0.1 | F1 (1 ≤ F1 ≤ 5) | – | –
6 | N#CCC1(n2cc(-c3nccc4nc(NC(=O)C5CC5)nn34)cn2)CN(C(=O)C2CC2)C1 [WX11, N-[5-[1-[3-(cyanomethyl)-1-(cyclopropylcarbonyl)azetidine-3-]pyrazole-4-]-[1,2,4]triazoloe[1,5-c]pyrimidine2-] cyclopropane carboxamide] | F3 (10 < F3 ≤ 25) | 0.1 to 1 | F2 (5 < F2 ≤ 10) | – | –
7 | COCC(=O)N1CC(CC#N)(n2cc(-c3nccc4nc(NC(=O)C5CC5)nn34)cn2)C1 [WX10, N-[5-[1-[3-(cyanomethyl)-1-(2-methoxyacetyl)azetidine-3-]pyrazole-4-]-[1,2,4]triazoloe[1,5-c]pyrimidine2-] cyclopropane carboxamide] | F1 (1 ≤ F1 ≤ 5) | 0.1 to 1 | F1 (1 ≤ F1 ≤ 5) | – | –
8 | N#CCC1(n2cc(-c3nccc4nc(N)nn34)cn2)CN(S(=O)(=O)C(F)(F)F)C1 [WX05, 2-[3-[4-(2-amino-[1,2,4]triazolo[1,5-c]pyrimidin-5-yl)pyrazole-1-yl]-1-(trifluoromethylsulfonyl)cyclobutylamine-3-yl]acetonitrile] | F3 (10 < F3 ≤ 25) | 0.01 to 0.1 | F1 (1 ≤ F1 ≤ 5) | – | –
9 | CS(=O)(=O)N1CC(CC#N)(n2cc(-c3cccc4nc(N)nn34)cn2)C1 [WX19, 2-(3-(4-(2-amino-[1,2,4]triazolo[1,5-a]pyridinyl)-1H-pyrazolyl)-1-(methylsulfonyl)cyclobutane)acetonitrile] | F3 (10 < F3 ≤ 25) | 0.01 to 0.1 | F1 (1 ≤ F1 ≤ 5) | – | –
10 | CS(=O)(=O)N1CC(CC#N)(n2cc(-c3cccc4nc(N)sc34)cn2)C1 [WX27, 2-(3-(4-(2-aminobenzo[d]thiazole-7-yl)-1H-pyrazole-1-yl)-(methylsulfonyl)azetidine-3-yl) methyl cyanide] | – | – | F3 (10 < F3 ≤ 25) | F2 (key: 1 ≤ F1 ≤ 5; 5 < F2 ≤ 10; 10 < F3 ≤ 25; 25 < F4 ≤ 100) | < 0.01
11 | N#CCC1(n2cc(-c3cccc4nc(NC(=O)C5CC5)nn34)cn2)CN(S(=O)(=O)C2CC2)C1 [WX08, N-(5-(1-(3-(cyanomethyl)-1-(cyclopropylsulfonyl)azetidine-3-yl)-1H-pyrazole-4-yl)-[1,2,4]triazolo[1,5-a]pyridin-2-yl)cyclopropane formamide] | F4 (25 < F4 ≤ 100) | < 0.01 | F1 (1 ≤ F1 ≤ 5) | – | –
12 | N#CCC1(n2cc(-c3nccc4nc(NC(=O)C5CC5)nn34)cn2)CN(S(=O)(=O)C(F)F)C1 [WX13, N-[5-[1-[3-(cyanomethyl)-1-(difluoromethylsulfonyl)-azetidine-3-]pyrazole-4-]-[1,2,4]triazoloe[1,5-c]pyrimidine2-]cyclopropane carboxamide] | F4 (25 < F4 ≤ 100) | < 0.01 | F3 (10 < F3 ≤ 25) | – | –
13 | CS(=O)(=O)N1CC(CC#N)(n2cc(-c3nccc4nc(NC(=O)C5CC5)nn34)cn2)C1 [WX12, N-[5-[1-[3-(cyanomethyl)-1-methanesulfonyl-azetidine-3-]pyrazole-4-]-[1,2,4]triazoloe[1,5-c]pyrimidine2-] cyclopropane carboxamide] | F3 (10 < F3 ≤ 25) | 0.01 to 0.1 | F2 (5 < F2 ≤ 10) | – | –

Further lines, with some results ahead:

Row | JAK3/JAK2 (times) (JAK3; [1]) | IC50 (JAK2; [2]) [µM] | JAK1/JAK2 (times) (JAK1) | Compound | JAK3/JAK2 (times) (JAK3) | IC50 (JAK2) [µM]
14 | F3 (10 < F3 ≤ 25) | < 0.01 | F1 (1 ≤ F1 ≤ 5) | N#CCC1(n2cc(-c3cccc4nc(N)nn34)cn2)CN(S(=O)(=O)C(F)(F)F)C1 [WX18] | – | –
15 | F4 (25 < F4 ≤ 100) | 0.01 to 0.1 | F3 (10 < F3 ≤ 25) | COCC(=O)Nc1nc2ccnc(-c3cnn(C4(CC#N)CN(S(=O)(=O)C(F)(F)F)C4)c3)n2n1 [WX24, N-(5-(1-(3-(cyanomethyl)-1-((trifluoromethyl)sulfonyl)azetidine-3-yl)-1H-pyrazole-4-yl)-[1,2,4]triazolo[1,5-c]pyridin-2-yl)-2-methoxyacetamide] | – | –
16 | F3 (10 < F3 ≤ 25) | 0.01 to 0.1 | F1 (1 ≤ F1 ≤ 5) | CN(C)Cc1cc(C(=O)N2CCC(N3CC(CC#N)(n4cc(-c5cccc6nc(NC(=O)C7CC7)nn56)cn4)C3)CC2)nc(C(F)(F)F)n1 [WX33] | – | –
17 | F3 (10 < F3 ≤ 25) | 0.1 to 1 | F2 (5 < F2 ≤ 10) | N#CCC1(n2cc(-c3nccc4nc(NC(=O)C5CC(F)(F)C5)nn34)cn2)CN(S(=O)(=O)C(F)(F)F)C1 [WX32, N-[5-[1-[3-(cyanomethyl)-1-(trifluoromethylsulfonyl)azetidin-3-yl]pyrazole-4-yl]-[1,2,4]triazolo[1,5-c]pyrimidin-2-yl]-3,3-difluoro-cyclobutanecarboxamide] | – | –
18 | F4 (25 < F4 ≤ 100) | < 0.01 | F2 (5 < F2 ≤ 10) | N#CCC1(n2cc(-c3cccc4nc(NC(=O)C5CC5)nn34)cn2)CN(S(=O)(=O)C(F)F)C1 [WX14, N-[5-[1-[3-(cyanomethyl)-1-(difluoromethylsulfonyl)azetidine-3-]pyrazole-4-]-[1,2,4]triazolo[1,5-c]pyridin-2-]cyclopropyl carboxamide] | – | –
19 | F3 (10 < F3 ≤ 25) | 0.1 to 1 | F1 (1 ≤ F1 ≤ 5) | N#CCC1(n2cc(-c3cccn4nc(NC(=O)C(F)(F)F)nc34)cn2)CN(S(=O)(=O)C2CC2)C1 [WX23] | – | –
